In general, tissue uptake refers to the percentage of the injected dose found per gram of tissue.

From patent US20260248972A1, “DUAL RECEPTOR TARGETING RADIOLIGANDS AND USES THEREOF RELATED APPLICATIONS” (priority 2022, published 2026) come the findings set out here.

One data set has as its target T1, SSTR2 (Rattus norvegicus, UniProt P30680).
T1 construct: host or cells: AR42J cells
Description: Competitive cell-binding assay on AR42J cells with 125I-C1 as competitive ligand. Particulars: for Relative Binding Affinity SSTR2: based on mean IC50, C-1 = 1.00. As to the method:
(§1) AR42J cells (ATCC) were maintained in RPMI-1640 medium (Gibco) supplemented with 15% fetal bovine serum (Gibco) and 1% penicillin-streptomycin (BI) at 37° C. in a humidified incubator with 5% CO2. The culture medium was replaced with fresh medium every 2-3 days. Experiments were performed with cells at 70-80% confluence.
(§2) Binding Affinity Tested by Using ^125I-Labeled Competitive Ligands.
(§3) The binding affinities of test compounds were determined by a competitive cell-binding assay using ^125I-C1 and ^125I-C3 as the competitive ligand. The suspended AR42J cells at a density of 1~3×10^6 cells/mL in binding buffer (RPMI-1640 medium supplemented with 0.25% bovine serum albumin) were transferred to a MultiScreen-DV Filter Plate (Millipore) with 100 μL per well except the blank group where the binding buffer was used instead. The cells were then incubated with ^125I-C1 and ^125I-C3 (0.02 μCi/well) in the presence of increasing concentrations (0-10000 nM) of test compounds at 37° C. for 1 h (n=3). The final volume in each well was maintained at 200 μL and insufficient volume was adjusted by the binding buffer. After the 1 h incubation, unbound ^125I-competitive ligands were removed by filtration using a Multiscreen vacuum manifold (Millipore) followed by rinses with the binding buffer (3 times). The filters were collected, and their radioactivity were individually measured by γ counter (2480 WIZARD2, PerkinElmer). The best-fit IC50value (inhibitory concentration when 50% of the bound ^125I-C1 and ^125l I-C3 on cells were displaced) of test compounds were calculated by fitting the data with nonlinear regression using GraphPad Prism 8.0.1.

Another data set addresses T2, CCK2R (Rattus norvegicus, UniProt P30553).
T2 construct: host or cells: AR42J cells
T2 sequence (P30553 1-452): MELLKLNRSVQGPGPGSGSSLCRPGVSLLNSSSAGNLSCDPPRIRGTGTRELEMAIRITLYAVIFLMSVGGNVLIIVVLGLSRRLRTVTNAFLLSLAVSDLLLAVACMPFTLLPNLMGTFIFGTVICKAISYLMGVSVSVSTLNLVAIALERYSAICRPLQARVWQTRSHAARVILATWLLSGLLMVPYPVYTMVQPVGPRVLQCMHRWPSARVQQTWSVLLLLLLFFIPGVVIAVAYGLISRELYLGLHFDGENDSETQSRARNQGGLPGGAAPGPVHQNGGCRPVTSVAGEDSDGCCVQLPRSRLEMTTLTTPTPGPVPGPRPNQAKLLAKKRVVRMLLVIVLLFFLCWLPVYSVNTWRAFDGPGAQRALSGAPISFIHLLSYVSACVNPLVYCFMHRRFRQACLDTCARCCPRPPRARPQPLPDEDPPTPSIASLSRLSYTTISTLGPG
As to the kind of experiment: Competitive cell-binding assay on AR42J cells with 125I-C3 as competitive ligand. Particulars: for IC50: AR42J cells, 125I-C3 competitive ligand, 37° C. 1 h, read-out: CCK2R/IC50; for Relative Binding Affinity CCK2R: based on mean IC50, C-2 = 1.00. As to the method: as §1, §2, §3

A further data set can be described thus: in vivo. The conditions noted are these: BALB/c nude, mouse, in vivo, iv, total radioactivity. An outline of the steps: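 Tissue uptake given as % ID and % ID/g from γ counting of organs taken 4, 24 and 72 h after injection into BALB/c nude mice carrying subcutaneous AR42J xenografts (0.05-0.50 g). Tracers were ^177Lu-labelled at 95° C for 15 min in pH 4.5 NaOAc buffer and used neat or diluted in PBS containing 3 mg/mL ascorbate.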

Each structure is given as a SMILES string. Like-named read-outs stand apart in the source and are kept apart here.

T1 sequence (P30680 whole entry): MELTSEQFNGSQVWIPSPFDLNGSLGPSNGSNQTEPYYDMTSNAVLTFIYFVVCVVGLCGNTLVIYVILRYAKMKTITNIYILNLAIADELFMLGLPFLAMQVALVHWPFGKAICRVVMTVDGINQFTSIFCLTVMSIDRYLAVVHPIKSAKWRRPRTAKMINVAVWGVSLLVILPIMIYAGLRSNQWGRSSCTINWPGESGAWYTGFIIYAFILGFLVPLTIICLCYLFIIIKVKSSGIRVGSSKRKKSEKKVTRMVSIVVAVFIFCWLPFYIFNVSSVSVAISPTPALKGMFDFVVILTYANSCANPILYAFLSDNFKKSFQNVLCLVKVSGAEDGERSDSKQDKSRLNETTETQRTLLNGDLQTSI

Take `C[C@@H](O)C(NC(=O)[C@@H]1CSSC[C@H](NC(=O)[C@@H](Cc2ccccc2)NC(=O)COCCOCCNC(=O)[C@H](CCCCNC(=O)CC[C@H](NC(=O)CNC(=O)c2cccc(NC(=O)N[C@@H]3CN(C4CCCCC4)c4ccccc4N(CC(=O)C(C)(C)C)C3=O)c2)C(=O)O)NC(=O)COCCOCCNC(=O)CCC(C(=O)O)N2CCN(CC(=O)O)CCN(CC(=O)O)CCN(CC(=O)O)CC2)C(=O)N[C@@H](Cc2ccc(O)cc2)C(=O)N[C@H](Cc2c[nH]c3ccccc23)C(=O)N[C@@H](CCCCN)C(=O)N[C@@H]([C@@H](C)O)C(=O)N1)C(=O)O` (stereo in doubt) [Compound I-20, DOTAGA- OEG- K(-gE- G- Z360)- OEG- f[CYwKTC]T- OH]: the IC50 at SSTR2 (AR42J cells, 125I-C1 competitive ligand, 37° C. 1 h, read-out: SSTR2/IC50) is 0.781 nM; on CCK2R, 1.4 nM. Moreover, the “Relative Binding Affinity SSTR2” value on SSTR2 stood at 3.60. In addition, the “Relative Binding Affinity CCK2R” value at CCK2R was 12.1.

`C[C@@H](O)[C@H](NC(=O)[C@@H]1CSSC[C@H](NC(=O)[C@@H](Cc2ccccc2)NC(=O)CN2CCN(CC(=O)O)CCN(CC(=O)O)CCN(CC(=O)O)CC2)C(=O)N[C@@H](Cc2ccc(O)cc2)C(=O)N[C@H](Cc2c[nH]c3ccccc23)C(=O)N[C@@H](CCCCN)C(=O)N[C@@H]([C@@H](C)O)C(=O)N1)C(=O)O` [Compound C-1, DOTA-f[CYwKTC]T-OH, reference compound] displayed an IC50 at SSTR2 of 2.81 nM.

Turning to `CCCC[C@H](NC(=O)[C@H](Cc1c[nH]c2ccccc12)NC(=O)CNC(=O)[C@H](Cc1ccc(O)cc1)NC(=O)[C@H](C)NC(=O)[C@@H](CCC(=O)O)NC(=O)[C@@H](CCC(=O)O)NC(=O)[C@@H](CCC(=O)O)NC(=O)[C@@H](CCC(=O)O)NC(=O)[C@@H](CCC(=O)O)NC(=O)[C@@H](CCC(=O)O)NC(=O)CN1CCN(CC(=O)O)CCN(CC(=O)O)CCN(CC(=O)O)CC1)C(=O)N[C@@H](CC(=O)O)C(=O)N[C@@H](Cc1ccccc1)C(N)=O` [Compound C-2, DOTA-e-e-e-e-e-e-AYGW-Nle-DF-NH2, reference compound], the “Relative Binding Affinity SSTR2” value on SSTR2 is given as below 0.001. At CCK2R, the IC50 was found to be 17 nM and the “Relative Binding Affinity CCK2R” value is reported as 1.00.

Regarding `CC(C)(C)C(=O)CN1C(=O)[C@H](NC(=O)Nc2cccc(C(=O)N[C@@H](CCC(=O)N[C@@H](CCC(=O)N[C@@H](CCC(=O)N[C@@H](CCCCNC(=O)COCCOCCNC(=O)COCCOCCNC(=O)CCC(C(=O)O)N3CCN(CC(=O)O)CCN(CC(=O)O)CCN(CC(=O)O)CC3)C(N)=O)C(=O)O)C(=O)O)C(=O)O)c2)CN(C2CCCCC2)c2ccccc21` (stereo partly drawn) [Compound C-4, Z360-gE-gE-gE-K(-OEG-OEG-DOTAGA)-NH2, reference compound], on CCK2R, the “Relative Binding Affinity CCK2R” value was 21.9.

Take `C[C@@H](O)[C@H](NC(=O)[C@@H]1CSSC[C@H](NC(=O)[C@@H](Cc2ccccc2)NC(=O)COCCOCCNC(=O)COCCOCCNC(=O)[C@H](CCCCNC(=O)CC[C@H](NC(=O)CNC(=O)c2cccc(NC(=O)N[C@@H]3CN(C4CCCCC4)c4ccccc4N(CC(=O)C(C)(C)C)C3=O)c2)C(=O)O)NC(=O)CN2CCN(CC(=O)O)CCN(CC(=O)O)CCN(CC(=O)O)CC2)C(=O)N[C@@H](Cc2ccc(O)cc2)C(=O)N[C@H](Cc2c[nH]c3ccccc23)C(=O)N[C@@H](CCCCN)C(=O)N[C@@H]([C@@H](C)O)C(=O)N1)C(=O)O` [Compound I-2, DOTA-K(-gE-G-Z360)-OEG-OEG-f[CYwKTC]T-OH]: at SSTR2, the “Relative Binding Affinity SSTR2” value stood at 2.94.

In the case of `C[C@@H](O)[C@H](NC(=O)[C@@H]1CSSC[C@H](NC(=O)[C@@H](Cc2ccccc2)NC(=O)[C@H](CCCCNC(=O)[C@H](CCC(=O)O)NC(=O)c2cccc(NC(=O)N[C@@H]3CN(C4CCCCC4)c4ccccc4N(CC(=O)C(C)(C)C)C3=O)c2)NC(=O)CN2CCN(CC(=O)O)CCN(CC(=O)O)CCN(CC(=O)O)CC2)C(=O)N[C@@H](Cc2ccc(O)cc2)C(=O)N[C@H](Cc2c[nH]c3ccccc23)C(=O)N[C@@H](CCCCN)C(=O)N[C@@H]([C@@H](C)O)C(=O)N1)C(N)=O` [Compound I-4, DOTA-K(-E-Z360)-f[CYwKTC]T-NH2], the “Relative Binding Affinity SSTR2” value on SSTR2 was 0.90. Besides, at CCK2R, the “Relative Binding Affinity CCK2R” value is 53.1.

As to `C[C@@H](O)[C@@H]1NC(=O)[C@H](CCCCN)NC(=O)[C@@H](Cc2c[nH]c3ccccc23)NC(=O)[C@H](Cc2ccc(O)cc2)NC(=O)[C@@H](NC(=O)[C@@H](Cc2ccccc2)NC(=O)COCCOCCNC(=O)[C@H](CCCCNC(=O)[C@H](CCC(=O)O)NC(=O)c2cccc(NC(=O)N[C@@H]3CN(C4CCCCC4)c4ccccc4N(CC(=O)C(C)(C)C)C3=O)c2)NC(=O)CN2CCN(CC(=O)O)CCN(CC(=O)O)CCN(CC(=O)O)CC2)CSSC[C@@H](C(=O)N[C@H](CO)[C@@H](C)O)NC1=O` [Compound I-5, DOTA-K(-E-Z360)-OEG-f[CYwKTC]-Thr(ol)], the “Relative Binding Affinity SSTR2” value at SSTR2 is on record as 0.10. Besides, on CCK2R, the “Relative Binding Affinity CCK2R” value stood at 216.

Regarding `C[C@@H](O)[C@@H]1NC(=O)[C@H](CCCCN)NC(=O)[C@@H](Cc2c[nH]c3ccccc23)NC(=O)[C@H](Cc2ccc(O)cc2)NC(=O)[C@@H](NC(=O)[C@@H](Cc2ccccc2)NC(=O)[C@H](CCCCNC(=O)[C@H](CCC(=O)O)NC(=O)c2cccc(NC(=O)N[C@@H]3CN(C4CCCCC4)c4ccccc4N(CC(=O)C(C)(C)C)C3=O)c2)NC(=O)CN2CCN(CC(=O)O)CCN(CC(=O)O)CCN(CC(=O)O)CC2)CSSC[C@@H](C(=O)N[C@H](CO)[C@@H](C)O)NC1=O` [Compound I-6, DOTA-K(-E-Z360)-f[CYwKTC]-Thr(ol)], at SSTR2, the “Relative Binding Affinity SSTR2” value amounted to 0.20. The “Relative Binding Affinity CCK2R” value on CCK2R was found to be 19.7.

For `C[C@@H](O)[C@H](NC(=O)[C@@H]1CSSC[C@H](NC(=O)[C@@H](Cc2ccccc2)NC(=O)COCCOCCNC(=O)[C@H](CCCCNC(=O)CC[C@H](NC(=O)CNC(=O)c2cccc(NC(=O)N[C@@H]3CN(C4CCCCC4)c4ccccc4N(CC(=O)C(C)(C)C)C3=O)c2)C(=O)O)NC(=O)CC[C@H](NC(=O)CC[C@H](NC(=O)CN2CCN(CC(=O)O)CCN(CC(=O)O)CCN(CC(=O)O)CC2)C(=O)O)C(=O)O)C(=O)N[C@@H](Cc2ccc(O)cc2)C(=O)N[C@H](Cc2c[nH]c3ccccc23)C(=O)N[C@@H](CCCCN)C(=O)N[C@@H]([C@@H](C)O)C(=O)N1)C(=O)O` [Compound I-10, DOTA-gE-gE-K(-gE-G-Z360)-OEG-f[CYwKTC]T-OH], the “Relative Binding Affinity SSTR2” value at SSTR2 is recorded as 0.78. Further, the “Relative Binding Affinity CCK2R” value on CCK2R is on record as 275.

Consider `C[C@@H](O)[C@H](NC(=O)[C@@H]1CSSC[C@H](NC(=O)[C@@H](Cc2ccccc2)NC(=O)COCCOCCNC(=O)[C@H](CCCCNC(=O)[C@H](CCC(=O)O)NC(=O)c2cccc(NC(=O)N[C@@H]3CN(C4CCCCC4)c4ccccc4N(CC(=O)C(C)(C)C)C3=O)c2)NC(=O)CN2CCN(CC(=O)O)CCN(CC(=O)O)CCN(CC(=O)O)CC2)C(=O)N[C@@H](Cc2ccc(O)cc2)C(=O)N[C@H](Cc2c[nH]c3ccccc23)C(=O)N[C@@H](CCCCN)C(=O)N[C@@H]([C@@H](C)O)C(=O)N1)C(=O)O` [Compound I-27, DOTA-K(-E-Z360)-OEG-f[CYwKTC]T-OH], for which, at SSTR2, the “Relative Binding Affinity SSTR2” value is listed as 0.51. Also, the tissue to tissue ratio at 24 h in the data set “in vivo” (T/K Tumor/Kidney ratio) was 1.4; in “in vivo” (T/L Tumor/Liver ratio), 26; in the data set “in vivo” (T/P Tumor/Pancreas ratio) it was 16; in the data set “in vivo” (T/Sp Tumor/Spleen ratio), 64; in “in vivo” (T/St Tumor/Stomach ratio) it was 6.3. In addition, the tissue uptake at 24 h came to 21 %ID/g in the data set “in vivo” (uptake Kidney); 1.11 %ID/g in the data set “in vivo” (uptake Liver); 1.79 %ID/g in “in vivo” (uptake Pancreas); 0.44 %ID/g in the data set “in vivo” (uptake Spleen); 4.51 %ID/g in “in vivo” (uptake Stomach); 28.5 %ID/g in “in vivo” (uptake Tumor).
